Test system: mice bearing PSMA-expressing LNCAP cancer xenografts
Assay: Biodistribution of 68Ga-labeled compounds
Format: in vivo
Method: Imaging and biodistribution experiments were performed using NODSCID 1L2RyKO male mice. Mice were anesthetized by inhalation with 2% isoflurane in oxygen, and implanted subcutaneously with 1×10^7 LNCaP cells behind left shoulder. Mice were imaged or used in biodistribution studies when the tumor grew up to reach 5-8 mm in diameter during 5-6 weeks.
For biodistribution studies, the mice were injected with the radiotracer as described above. At predetermined time points (1 or 3 h), the mice was anesthetized with 2% isoflurane inhalation, and euthanized by CO2 inhalation. Blood was withdrawn immediately from the heart, and the organs/tissues of interest were collected. The collected organs/tissues were weighed and counted using an automatic gamma counter. The uptake in each organ/tissue was normalized to the injected dose using a standard curve, and expressed as the percentage of the injected dose per gram of tissue (% ID/g).

`O=C([O-])CN1CCN(CC(=O)[O-])CCN(CC(=O)NCCCC[C@H](NC(=O)CNC(=O)CCCc2ccc(I)cc2)C(=O)NC[C@H]2CC[C@H](C(=O)N[C@@H](Cc3ccc4ccccc4c3)C(=O)NCCCC[C@H](NC(=O)N[C@@H](CCC(=O)O)C(=O)O)C(=O)O)CC2)CCN(CC(=O)[O-])CC1.[68Ga+3]` [^68Ga-HTK03024] showed an Adrenal glands uptake (1 h post-injection) of 4.32 ± 0.25 % ID/g, a Blood uptake (1 h post-injection) of 27.0 ± 5.63 % ID/g and a Bone uptake (1 h post-injection) of 1.26 ± 0.08 % ID/g. It also gave a Brain uptake (1 h post-injection) of 0.31 ± 0.04 % ID/g, a Fat uptake (1 h post-injection) of 1.83 ± 0.44 % ID/g and a Heart uptake (1 h post-injection) of 6.53 ± 1.30 % ID/g. The Intestine uptake (1 h post-injection) was 1.86 ± 0.06 % ID/g, the Kidneys uptake (1 h post-injection) was 9.11 ± 1.06 % ID/g and the Lacrimal uptake (1 h post-injection) was 0.93 ± 0.36 % ID/g. The Liver uptake (1 h post-injection) was 3.71 ± 0.38 % ID/g, the Lungs uptake (1 h post-injection) was 9.51 ± 0.55 % ID/g and the Muscle uptake (1 h post-injection) was 1.10 ± 0.18 % ID/g. It also gave a Pancreas uptake (1 h post-injection) of 1.86 ± 0.04 % ID/g, a Salivary uptake (1 h post-injection) of 3.31 ± 0.79 % ID/g and a Seminal uptake (1 h post-injection) of 1.27 ± 0.18 % ID/g. The Spleen uptake (1 h post-injection) was 2.72 ± 0.69 % ID/g, the Stomach uptake (1 h post-injection) was 0.64 ± 0.05 % ID/g and the Tail uptake (1 h post-injection) was 7.58 ± 4.49 % ID/g. The Testes uptake (1 h post-injection) was 2.98 ± 0.30 % ID/g, the Thyroid uptake (1 h post-injection) was 4.39 ± 0.01 % ID/g and the Tumor uptake (1 h post-injection) was 7.34 ± 0.10 % ID/g. The “Tumor:Blood ratio” value (1 h post-injection) was 0.28 ± 0.05, the “Tumor:Muscle ratio” value (1 h post-injection) was 6.74 ± 1.00 and the “Tumor:kidney ratio” value (1 h post-injection) was 0.81 ± 0.11. It also gave a Urine uptake (1 h post-injection) of 1.48 ± 0.71 % ID/g, an Adrenal glands uptake (3 h post-injection) of 6.37 ± 1.54 % ID/g and a Blood uptake (3 h post-injection) of 23.9 ± 1.03 % ID/g. The Bone uptake (3 h post-injection) was 1.66 ± 0.39 % ID/g, the Brain uptake (3 h post-injection) was 0.34 ± 0.02 % ID/g and the Fat uptake (3 h post-injection) was 3.53 ± 1.48 % ID/g. It also gave a Heart uptake (3 h post-injection) of 5.56 ± 0.43 % ID/g, an Intestine uptake (3 h post-injection) of 1.66 ± 0.14 % ID/g and a Kidneys uptake (3 h post-injection) of 12.3 ± 0.86 % ID/g. It also gave a Lacrimal uptake (3 h post-injection) of 3.57 ± 1.56 % ID/g, a Liver uptake (3 h post-injection) of 3.86 ± 0.63 % ID/g and a Lungs uptake (3 h post-injection) of 11.6 ± 0.82 % ID/g. It also gave a Muscle uptake (3 h post-injection) of 1.55 ± 0.15 % ID/g, a Pancreas uptake (3 h post-injection) of 1.86 ± 0.20 % ID/g and a Salivary uptake (3 h post-injection) of 4.66 ± 0.58 % ID/g. The Seminal uptake (3 h post-injection) was 1.63 ± 0.13 % ID/g, the Spleen uptake (3 h post-injection) was 2.62 ± 0.93 % ID/g and the Stomach uptake (3 h post-injection) was 0.70 ± 0.10 % ID/g. For the same compound, the Tail uptake (3 h post-injection) was 4.03 ± 0.43 % ID/g, the Testes uptake (3 h post-injection) was 3.07 ± 0.20 % ID/g and the Thyroid uptake (3 h post-injection) was 4.19 ± 0.48 % ID/g. The Tumor uptake (3 h post-injection) was 15.0 ± 2.19 % ID/g, the “Tumor:Blood ratio” value (3 h post-injection) was 0.63 ± 0.11 and the “Tumor:Muscle ratio” value (3 h post-injection) was 9.69 ± 1.51. The “Tumor:kidney ratio” value (3 h post-injection) was 1.21 ± 0.10 and the Urine uptake (3 h post-injection) was 3.68 ± 1.74 % ID/g.
`Nc1ccc(CCCC(=O)NCC(=O)N[C@@H](CCCCNC(=O)CN2CCN(CC(=O)[O-])CCN(CC(=O)[O-])CCN(CC(=O)[O-])CC2)C(=O)NC[C@H]2CC[C@H](C(=O)N[C@@H](Cc3ccc4ccccc4c3)C(=O)NCCCC[C@H](NC(=O)N[C@@H](CCC(=O)O)C(=O)O)C(=O)O)CC2)cc1.[68Ga+3]` [^68Ga-HTK03087] gave an Adrenal glands uptake (1 h post-injection) of 2.95 ± 0.92 % ID/g, a Blood uptake (1 h post-injection) of 1.74 ± 0.11 % ID/g and a Bone uptake (1 h post-injection) of 0.16 ± 0.02 % ID/g. The Brain uptake (1 h post-injection) was 0.04 ± 0.01 % ID/g, the Fat uptake (1 h post-injection) was 0.77 ± 0.14 % ID/g and the Heart uptake (1 h post-injection) was 0.52 ± 0.07 % ID/g. For the same compound, the Intestine uptake (1 h post-injection) was 0.32 ± 0.06 % ID/g, the Kidneys uptake (1 h post-injection) was 102 ± 8.91 % ID/g and the Lacrimal uptake (1 h post-injection) was 0.06 ± 0.05 % ID/g. For the same compound, the Liver uptake (1 h post-injection) was 0.44 ± 0.06 % ID/g, the Lungs uptake (1 h post-injection) was 1.75 ± 0.09 % ID/g and the Muscle uptake (1 h post-injection) was 0.31 ± 0.05 % ID/g. The Pancreas uptake (1 h post-injection) was 0.45 ± 0.02 % ID/g, the Salivary uptake (1 h post-injection) was 1.76 ± 0.16 % ID/g and the Seminal uptake (1 h post-injection) was 2.40 ± 2.83 % ID/g. For the same compound, the Spleen uptake (1 h post-injection) was 2.42 ± 0.79 % ID/g, the Stomach uptake (1 h post-injection) was 0.14 ± 0.05 % ID/g and the Tail uptake (1 h post-injection) was 0.91 ± 0.12 % ID/g. The Testes uptake (1 h post-injection) was 0.48 ± 0.06 % ID/g, the Thyroid uptake (1 h post-injection) was 0.74 ± 0.04 % ID/g and the Tumor uptake (1 h post-injection) was 20.7 ± 3.79 % ID/g. For the same compound, the “Tumor:Blood ratio” value (1 h post-injection) was 11.9 ± 1.92, the “Tumor:Muscle ratio” value (1 h post-injection) was 66.6 ± 9.63 and the “Tumor:kidney ratio” value (1 h post-injection) was 0.20 ± 0.02. The Urine uptake (1 h post-injection) was 196 ± 50.9 % ID/g, the Adrenal glands uptake (3 h post-injection) was 0.90 ± 0.36 % ID/g and the Blood uptake (3 h post-injection) was 0.52 ± 0.08 % ID/g. For the same compound, the Bone uptake (3 h post-injection) was 0.03 ± 0.03 % ID/g, the Brain uptake (3 h post-injection) was 0.01 ± 0.00 % ID/g and the Fat uptake (3 h post-injection) was 0.40 ± 0.11 % ID/g. The Heart uptake (3 h post-injection) was 0.16 ± 0.03 % ID/g, the Intestine uptake (3 h post-injection) was 0.23 ± 0.10 % ID/g and the Kidneys uptake (3 h post-injection) was 56.1 ± 20.3 % ID/g. The Lacrimal uptake (3 h post-injection) was 0.00 ± 0.00 % ID/g, the Liver uptake (3 h post-injection) was 0.31 ± 0.19 % ID/g and the Lungs uptake (3 h post-injection) was 0.53 ± 0.12 % ID/g. The Muscle uptake (3 h post-injection) was 0.08 ± 0.02 % ID/g, the Pancreas uptake (3 h post-injection) was 0.14 ± 0.03 % ID/g and the Salivary uptake (3 h post-injection) was 0.47 ± 0.07 % ID/g. For the same compound, the Seminal uptake (3 h post-injection) was 1.44 ± 3.04 % ID/g, the Spleen uptake (3 h post-injection) was 0.80 ± 0.31 % ID/g and the Stomach uptake (3 h post-injection) was 0.07 ± 0.04 % ID/g. For the same compound, the Tail uptake (3 h post-injection) was 0.27 ± 0.05 % ID/g, the Testes uptake (3 h post-injection) was 0.17 ± 0.05 % ID/g and the Thyroid uptake (3 h post-injection) was 0.24 ± 0.05 % ID/g. For the same compound, the Tumor uptake (3 h post-injection) was 20.4 ± 5.92 % ID/g, the “Tumor:Blood ratio” value (3 h post-injection) was 39.2 ± 8.42 and the “Tumor:Muscle ratio” value (3 h post-injection) was 254 ± 88.9. The “Tumor:kidney ratio” value (3 h post-injection) was 0.40 ± 0.16 and the Urine uptake (3 h post-injection) was 339 ± 355 % ID/g.
